Results from US7250422B2 (priority 2002, dated 2007).

What was measured:
mice = experiment: Hot-plate test, morphine tolerance caused by repeated administration; assay type: in vivo; details: berberine 10 mg/kg i.p. 30 min before morphine 10 mg/kg s.c., six days, tested day 7; P<0.01; FIG. 4
Male ICR mice [1] = experiment: Conditioned place preference test for psychological dependence on morphine; details: p<0.01, FIG. 1
Description: (§1) 10 to 15 mice per group were used.

Male ICR mice [2] = details: berberine 1, 3 and 10 mg/kg i.p. 30 min before morphine 5 mg/kg s.c.; FIG. 3
rats = details: intraperitoneal injection; cited from earlier work
Male ICR mice [3] = experiment: Spontaneous locomotor activity increased by morphine (Video-tracking system); assay type: in vivo; details: for locomotor activity (steps): six days; for suppression of locomotor activity increased by morphine vs morphine control group: p<0.001
Description: as §1
Spontaneous locomotor activity was tested in a plastic chamber (26×30×30 cm) using a Video-tracking system. […] Immediately after the last administration, the mice were placed in the plastic chamber, and spontaneous locomotor activity was recorded for 30 min and analyzed using a computer program.

Structure (SMILES) | inhibition of the development of morphine tolerance (AUC) (mice) | inhibition of psychological dependence on morphine (Male ICR mice [1]; berberine 1 or 2 mg/kg orally one hour before morphine 5 mg/kg i.p., equal to saline control) | effect on the analgesic effect of morphine (AUC of % MPE) (Male ICR mice [2]) | LD50 (rats) [mg/kg] | locomotor activity (steps) (Male ICR mice [3]; berberine 1 mg/kg orally one hour before morphine 10 mg/kg, recorded 30 min) | suppression of locomotor activity increased by morphine vs morphine control group (Male ICR mice [3]; berberine 1 mg/kg orally) [%] | locomotor activity (steps) (Male ICR mice [3]; berberine 2 mg/kg orally one hour before morphine 10 mg/kg, recorded 30 min) | suppression of locomotor activity increased by morphine vs morphine control group (Male ICR mice [3]; berberine 2 mg/kg orally) [%] | development of psychological dependence (testing time minus preconditioning time) (Male ICR mice [1]; morphine control, 5 mg/kg i.p. on days 3, 5, 7, 9) | locomotor activity (steps by a forefoot) (Male ICR mice [3]; only morphine 10 mg/kg once per day for six days, recorded 30 min) [steps]
COc1ccc2cc3[n+](cc2c1OC)CCc1cc2c(cc1-3)OCO2 [berberine, 7,8,13,13a-tetradihydro-9,10-dimethoxy-2,3-(methyldioxy)berbinium] | significantly inhibited | completely inhibited | rarely affect the analgesic effect of morphine | 90 | 19744 | 61 | 20027 | 60 |  | 
CN1CC[C@]23c4c5ccc(O)c4O[C@H]2[C@@H](O)C=C[C@H]3[C@H]1C5 [morphine] |  |  |  |  |  |  |  |  | significant psychological dependence | 50242
